Source: patent US20220401452A1, “USE OF INHIBITORS OF ENHANCER OF ZESTE HOMOLOG 2” (The Board Of Regents of The University of Texas System, priority 2019, published 2022)

Assays:
[1] = system: 668 cancer cells lines of various types; details: CTRP data, cited from earlier work
DU145 cells [2] = assay: Gene expression by RNA-Seq in DU145 cells; assay type: cell-based, human; details: 5 μM, 72 hrs
Experimental: (§1) Blue bars represent the percentage of genes in each specific functional category. The red line represents values of the false discovery rate (FDR) for the particular GO term. […] Two analyses were carried out to rule out the possible off-targeted effect of EZH2i on gene regulation. First, transcriptional profiles were compared in abl being treated with either EZH2i or in which EZH2 had been silenced using RNA interference (RNAi). Pharmacologic and genetic inhibition of EZH2 shared highly similar gene expression patterns.
(§2) Analysis of EZH2 Inhibitor Mediated Gene Expression by RNA-Seq. […] RNA-seq library was prepared using Illumina True-seq RNA sample preparation kit and sequenced to 50 bp using Illumina Hi-seq platform. RNA-seq data was mapped to human genome (hg19) using TopHat version 2.0.6. […] Differentially expressed genes were first filtered using LFC>0.5 or <−0.5, and then top 200 genes were selected through ranking by their p-values. The authentic target genes of EZH2 in abl cells were defined as those showing similar expression changes upon either EZH2 silencing or inhibitor treatment.

[3] = system: C4-2B, LAPC4-CR and LNCaP-AI cells; assay: RT-qPCR of selected genes in C4-2B, LAPC4-CR and LNCaP-AI; assay type: cell-based, human; details: 5 μM, 72 hrs
From the text: The expression of these genes was examined in three other EZH2i-sensitive CRPC cell lines: C4-2B, LAPC4-CR and LNCaP-AI. FIG. 2D is a heat map of quantitative real-time RT-qPCR results showing changes in mRNA levels of selected gene in three prostate cancer cell lines (C4-2B, LAPC4-CR, and LNCaP-AI). […] EZH2-activated genes and EZH2-repressed genes are grouped together. […] Numbers, triplicates of samples from control or treatment group.
RNA isolation and RT-qPCR. RNA was extracted and purified using the TRIzol Reagent combined with RNeasy Mini Kit (Qiagen) according to manufacturer's protocols. 2 μg of total RNAs were then used for cDNA synthesis using High Capacity cDNA Reverse Transcription Kit (Applied Biosystems). Real-time quantitative RT-PCR was performed, and gene expression was calculated as described previously, using the formula 2-ΔΔCt relative to the level of GAPDH as the internal control.

DU145 cells [4] = assay: Growth curve of DU145 cells; assay type: cell-based, human; details: FIG. 9A
Experimental: Genetic inhibition of EZH2 suppressed growth of CRPC cells better than that of androgen-dependent prostate cancer cells. As EZH2 is a druggable enzyme with available small-molecule inhibitors, the efficacy of EZH2-targeting drugs was assessed in prostate cancer cells. […] Cells were grouped based on the basic characteristics. ADPC is androgen-dependent prostate cancer, and CRPC is castration-resistant prostate cancer. Concentrations as low as 500 nM of the EZH2 inhibitors (EZH2i) greatly retarded the growth of castration-resistant abl cells. […] Relatively higher doses of EZH2i were required to suppress the androgen-dependent LNCaP cells. […] This was consistent with a previous report that neither PC3 nor DU145 requires EZH2 for continued growth.

[5] = system: H3K27 methylation in prostate cell lines; assay: Western blot of H3K27 methylation levels in prostate cell lines; assay type: cell-based, human; details: all tested prostate cell lines; 1 or 5 μM
From the text: In view of the canonical function of EZH2 in catalyzing H3K27me3, the mechanisms of how repressive chromatin mark contribute to the growth and gene inhibitory effects of EZH2i were investigated. […] Discrepancies between EZH2i-induced H3K27me3 reduction and cell insensitivity to EZH2i were also reported in lymphoma cells.

abl cells [6] = assay: Gene expression by RNA-Seq in abl cells; assay type: cell-based, human; details: 5 μM, 72 hrs
Experimental: as §1, §2

LNCaP cells = assay: Alkaline comet assay after ionizing radiation in LNCaP cells; assay type: cell-based, human; details: 5 μM pretreatment 7 days, recovery 4 hrs
Experimental: (§3) EZH2i can be administered to sensitize CRPC cells to DNA damage repair (DDR) agents. To validate this, abl, LNCaP and DU145 cells were exposed to increasing doses of ionizing radiation (IR). […] FIG. 6A is a graphical representation of the alkaline comet assays in abl cells. Prostate cancer cells were pretreated with vehicle (DMSO) or 5 μM GSK126 (GSK) for 7 days, and then exposed to increasing dosages of ionizing radiation (IR) followed by recovery for 4 hrs. FIG. 6B is a set of photographic images of each IR dosage corresponding to the dosages in FIG. 6A. FIG. 6C is a graphical representation of the alkaline comet assays in LNCaP cells. […]
(§4) FIG. 15A is a graphical representation of the alkaline comet assay results in abl cells after pretreatment with vehicle (DMSO) or 5 μM GSK126 (GSK) for 7 days and then being exposed to 5 gray (Gy) ionizing radiation (IR) followed by recovery at indicated time points (Quantification of the results using “Olive Tail Moment” parameter). […] FIG. 15C is a graphical representation of the alkaline comet assay results in LNCaP cells after pretreatment with vehicle (DMSO) or 5 μM GSK126 (GSK) for 7 days and then being exposed to 5 gray (Gy) ionizing radiation (IR) followed by recovery at indicated time points (Quantification of the results using “Olive Tail Moment” parameter). […]

DU145 cells [7] = assay: Alkaline comet assay after ionizing radiation in DU145 cells; assay type: cell-based, human; details: 5 μM pretreatment 7 days, recovery 4 hrs
Experimental: as §3, §4

CWR22Rv1 xenografts = assay: Test of EZH2 inhibitors in CWR22Rv1 xenograft mouse model; assay type: in vivo, castrated nude mice
Experimental: FIG. 1F is a growth curve of xenograft tumors in castrated nude mice injected with CWR22Rv1 cells receiving vehicle (Veh) or GSK126, at the indicated doses.
Test of EZH2 Inhibitors in Xenograft Mouse Model. Male nude mice (Taconic) were castrated after 3 days of accommodation. CWR22Rv1 xenografts were established in the flanks of mice by injecting ˜2 million cells in 50% Matrigel (BD Biosciences). […] Tumors were measured 3 times every week and harvested after 3 weeks. Frozen samples were subjected to RT-qPCR and immunoblotting to study the expression of selected genes. All animal protocols were approved by the Beth Israel Deaconess Institutional Animal Care and Use Committee, and the experiments were performed in accordance with institutional and national guidelines.

abl cells [8] = assay: Alkaline comet assay after ionizing radiation in abl cells; assay type: cell-based, human; details: 5 μM pretreatment 7 days
Experimental: as §3, §4

## C[C@H]1CN([C@@H](C)CO)S(=O)(=O)c2ccc(C#CCC3CCCC3)cc2O[C@@H]1CN(C)Cc1ccc(C(=O)O)cc1 [BRD]
[1]; GOF vs LOF p=0.2705, GOF vs None p=1.000
  potency by EZH2 mutation status: does not show higher potency
[1]; top 25% highest vs bottom 25% lowest expression
  sensitivity of cell lines by expression of DNA repair genes: much more susceptible

## CCN(c1cc(-c2ccc(CN3CCOCC3)cc2)cc(C(=O)NCc2c(C)cc(C)[nH]c2=O)c1C)C1CCOCC1 [EPZ-6438]
DU145 cells [2]
  gene expression pattern in EZH2i-insensitive DU145 cells: largely de-repressed genes
[3]
  expression of EZH2-repressed genes: upregulated EZH2-repressed genes to some extent
DU145 cells [4]
  inhibitory effect on growth of AR-null DU145: minimal
[5]
  total H3K27 di- and tri-methylation levels: reduced total H3K27 di- and tri-methylation levels in a dose-dependent manner
Abl cells [6]
  gene expression pattern in abl cells: a large number of genes were significantly downregulated

## CC[C@H](C)n1cc(C)c2c(C(=O)NCc3c(C)cc(C)[nH]c3=O)cc(-c3ccc(N4CCNCC4)nc3)cc21 [GSK126]
DU145 cells [2]
  gene expression pattern in EZH2i-insensitive DU145 cells: largely de-repressed genes
[3]
  expression of EZH2-repressed genes: upregulated EZH2-repressed genes to some extent
DU145 cells [4]
  inhibitory effect on growth of AR-null DU145: minimal
LNCaP cells
  difference in sensitivity to ionizing radiation (comet assay): very minor
[5]
  total H3K27 di- and tri-methylation levels: reduced total H3K27 di- and tri-methylation levels in a dose-dependent manner
DU145 cells [7]
  difference in sensitivity to ionizing radiation (comet assay): non-existent
Abl cells [6]
  gene expression pattern in abl cells: a large number of genes were significantly downregulated
CWR22Rv1 xenografts; CWR22Rv1 subcutaneous xenografts, castrated mice, daily injection, 21 days of treatment
  xenograft tumor growth: significantly retarded tumor growth
CWR22Rv1 xenografts; CWR22Rv1 xenografts
  mRNA and protein levels of EZH2-activated genes in xenograft tumor tissues: consistent decrease
Abl cells [8]
  DNA damage repair after 5 Gy IR (Olive Tail Moment over recovery time): drastically delayed DNA damage repair
Abl cells [8]; recovery 4 hrs
  sensitivity to increasing doses of ionizing radiation (comet assay): became much more sensitive to IR
